In patent US20120270237A9, “METHODS FOR THE IDENTIFICATION OF KINASE INTERACTING MOLECULES AND FOR THE PURIFICATION OF KINASE PROTEINS” (Cellzone AG, priority 2009, published 2012) one finds inhibition and Competition % data, which are given here for one compound.

Structures are written as SMILES.

One assay has as its target CDC2 (Homo sapiens, UniProt P06493). Put plainly: Kinobeads competition binding, HL60 cell lysate. Further details: endogenous in cells. To be noted: 10 μM free compound. On the procedure: (§1) To one aliquot of cell lysate 10 μM of the free compound (FIG. 3, CZC31326) was added and allowed to bind to proteins in the lysate. Then the affinity matrix with the immobilized compound (Example 1) was added to capture proteins that were not interacting with the previously added free compound. Beads were separated from the lysate and bead bound proteins were eluted in SDS sample buffer and subsequently separated by SDS-Polyacrylamide gel electrophoresis (FIG. 4). Suitable gel bands were cut out and subjected to in-gel proteolytic digestion with trypsin. The second lysate aliquot was processed identically, however no free compound was added (DMSO solvent control). Peptides originating from samples 1 and 2 were labeled with iTRAQ reagents (iTRAQ 114 and iTRAQ 117) and the combined samples were analyzed with a nano-flow liquid chromatography system coupled online to a tandem mass spectrometer (LC-MS/MS) experiment followed by iTRAQ reporter ion quantification in the MS/MS spectra (Ross et al., 2004. Mol. Cell. Proteomics 3(12):1154-1169). Further experimental protocols can be found in WO2006/134056 and a previous publication (Bantscheff et al., 2007. Nature Biotechnology 25, 1035-1044). Sepharose-beads with the immobilized compound (100 μl beads per pull-down experiment) were equilibrated in lysis buffer and incubated with a cell lysate sample containing 50 mg of protein on an end-over-end shaker (Roto Shake Genie, Scientific Industries Inc.) for 2 hours at 4° C. Beads were collected, transferred to Mobicol-columns (MoBiTech 10055) and washed with 10 ml lysis buffer containing 0.4% NP40 detergent, followed by 5 ml lysis buffer containing 0.2% detergent. To elute bound proteins, 60 μl 2×SDS sample buffer was added to the column. The column was incubated for 30 minutes at 50° C. and the eluate was transferred to a siliconized microfuge tube by centrifugation. Proteins were then alkylated with 108 mM iodoacetamid. Proteins were then separated by SDS-Polyacrylamide electrophoresis (SDS-PAGE). The peptide extracts of samples treated with 10 μM of free compound (CZC31326) and the solvent control (0.5% DMSO) were treated with different variants of the isobaric tagging reagent (iTRAQ Reagents Multiplex Kit, part number 4352135, Applied Biosystems, Foster City, Calif., USA). The iTRAQ reagents are a set of multiplexed, amine-specific, stable isotope reagents that can label peptides on amino groups in up to four different biological samples enabling simultaneous identification and quantitation of peptides. The iTRAQ reagents were used according to instructions provided by the manufacturer. The samples were resuspended in 10 μl 50 mM TEAB solution, pH 8.5 and 10 μl ethanol were added. The iTRAQ reagent was dissolved in 120 μl ethanol and 10 μl of reagent solution were added to the sample. The labeling reaction was performed at room temperature for one hour on a horizontal shaker and stopped by adding 5 μl of 100 mM TEAB and 100 mM glycine in water. The two labeled sampled were then combined, dried in a vacuum centrifuge and resuspended in 10 μl of 0.1% formic acid in water. Relative protein quantitation was performed using peak areas of iTRAQ reporter ion signals essentially as described in an earlier publication (Bantscheff et al., 2007. Nature Biotechnology 25, 1035-1044).

A further assay deals with JNK1 (Homo sapiens, UniProt P45983). As to the kind of experiment: Kinobeads competition binding, HL60 cell lysate. Also on record: endogenous in cells. As to conditions: 10 μM free compound. On the procedure: as §1
Sequence of JNK1 (P45983 whole entry): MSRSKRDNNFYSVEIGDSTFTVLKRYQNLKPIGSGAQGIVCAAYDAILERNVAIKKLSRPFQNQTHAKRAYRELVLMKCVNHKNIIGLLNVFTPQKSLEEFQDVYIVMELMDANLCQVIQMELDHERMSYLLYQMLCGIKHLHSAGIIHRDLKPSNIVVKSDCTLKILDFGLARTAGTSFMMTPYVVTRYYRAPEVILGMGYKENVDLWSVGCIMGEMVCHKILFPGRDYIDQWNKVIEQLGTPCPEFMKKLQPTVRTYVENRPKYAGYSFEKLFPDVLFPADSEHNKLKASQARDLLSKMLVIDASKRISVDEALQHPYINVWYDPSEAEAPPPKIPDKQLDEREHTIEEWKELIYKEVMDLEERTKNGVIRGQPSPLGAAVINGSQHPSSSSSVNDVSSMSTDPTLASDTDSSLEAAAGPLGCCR
A further assay deals with T1, NEK3 (Homo sapiens, UniProt P51956).
T1 sequence (P51956 1-506): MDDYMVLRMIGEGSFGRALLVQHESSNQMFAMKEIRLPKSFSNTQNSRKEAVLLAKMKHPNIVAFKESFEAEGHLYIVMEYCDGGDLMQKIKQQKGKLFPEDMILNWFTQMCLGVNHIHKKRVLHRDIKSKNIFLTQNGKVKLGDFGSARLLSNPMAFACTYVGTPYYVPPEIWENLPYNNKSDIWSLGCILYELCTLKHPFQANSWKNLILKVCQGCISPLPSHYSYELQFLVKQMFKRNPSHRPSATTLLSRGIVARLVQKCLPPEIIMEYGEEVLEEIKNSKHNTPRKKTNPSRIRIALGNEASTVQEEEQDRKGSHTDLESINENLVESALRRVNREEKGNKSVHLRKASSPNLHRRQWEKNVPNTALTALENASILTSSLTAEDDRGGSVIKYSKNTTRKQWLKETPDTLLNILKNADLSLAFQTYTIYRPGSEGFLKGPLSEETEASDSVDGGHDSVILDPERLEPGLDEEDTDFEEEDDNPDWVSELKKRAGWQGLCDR
As to the kind of experiment: Kinobeads competition binding, HL60 cell lysate. As to conditions: 10 μM free compound. Further details: endogenous in cells. On the procedure: as §1

Another assay addresses PLK4 (Homo sapiens, UniProt O00444). Put plainly: Kinobeads competition binding, HL60 cell lysate. Further details: endogenous in cells. As to conditions: 10 μM free compound. On the procedure:
as §1

A further assay deals with TGFbR1 (Homo sapiens, UniProt P36897). Put plainly: Kinobeads competition binding, HL60 cell lysate. Further details: endogenous in cells. As to conditions: 10 μM free compound. On the procedure:
as §1

The target in the next assay is CaMKK2 (Homo sapiens, UniProt Q96RR4). As to the kind of experiment: Kinobeads competition binding, L-363 cell lysate. Further details: capturing and identification of kinases from L-363 cell lysate; endogenous in cells; host or cells: L-363 cells (DSMZ ACC49), pre-treated with MG132. As to conditions: 10 μM free compound, L-363 lysate. On the procedure: To one aliquot of cell lysate 10 μM of the free compound (FIG. 3, CZC31326) was added and allowed to bind to proteins in the lysate. Then the affinity matrix with the immobilized compound was added to capture proteins that were not interacting with the previously added free compound. Beads were separated from the lysate and bead bound proteins were eluted in SDS sample buffer and subsequently separated by SDS-Polyacrylamide gel electrophoresis (FIG. 8). Suitable gel bands were cut out and subjected to in-gel proteolytic digestion with trypsin. The second lysate aliquot was processed identically, however no free compound was added (DMSO solvent control). Peptides originating from samples 1 and 2 were labeled with iTRAQ reagents (iTRAQ 114 and iTRAQ 117) and the combined samples were analyzed with a nano-flow liquid chromatography system coupled online to a tandem mass spectrometer (LC-MS/MS) experiment followed by iTRAQ reporter ion quantification in the MS/MS spectra as described in Example 2.
Sequence of CaMKK2 (Q96RR4 whole entry): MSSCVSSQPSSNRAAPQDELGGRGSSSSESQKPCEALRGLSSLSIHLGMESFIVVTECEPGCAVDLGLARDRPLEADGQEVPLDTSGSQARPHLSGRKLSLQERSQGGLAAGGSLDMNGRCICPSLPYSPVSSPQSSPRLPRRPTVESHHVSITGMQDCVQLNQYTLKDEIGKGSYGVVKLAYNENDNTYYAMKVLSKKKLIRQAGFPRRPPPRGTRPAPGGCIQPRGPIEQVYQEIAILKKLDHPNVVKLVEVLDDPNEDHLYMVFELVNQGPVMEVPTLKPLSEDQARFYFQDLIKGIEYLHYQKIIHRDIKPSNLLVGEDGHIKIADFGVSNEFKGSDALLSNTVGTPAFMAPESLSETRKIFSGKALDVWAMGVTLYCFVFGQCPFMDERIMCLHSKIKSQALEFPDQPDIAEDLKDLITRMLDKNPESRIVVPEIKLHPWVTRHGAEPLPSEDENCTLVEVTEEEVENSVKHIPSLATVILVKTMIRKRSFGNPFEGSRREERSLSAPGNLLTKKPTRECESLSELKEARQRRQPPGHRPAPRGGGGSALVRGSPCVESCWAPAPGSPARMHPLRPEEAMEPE
For this experiment the human plasma cell leukaemia line L-363 was used (German Collection of Microorganisms and Cell Cultures, DSMZ number ACC49, Braunschweig, Germany). Cells were treated for three hours with 20 μM of the proteasome inhibitor MG132 (Z-Leu-Leu-Leu-al, Sigma C2211) prior to cell harvesting.

Sequence of PLK4 (O00444 whole entry): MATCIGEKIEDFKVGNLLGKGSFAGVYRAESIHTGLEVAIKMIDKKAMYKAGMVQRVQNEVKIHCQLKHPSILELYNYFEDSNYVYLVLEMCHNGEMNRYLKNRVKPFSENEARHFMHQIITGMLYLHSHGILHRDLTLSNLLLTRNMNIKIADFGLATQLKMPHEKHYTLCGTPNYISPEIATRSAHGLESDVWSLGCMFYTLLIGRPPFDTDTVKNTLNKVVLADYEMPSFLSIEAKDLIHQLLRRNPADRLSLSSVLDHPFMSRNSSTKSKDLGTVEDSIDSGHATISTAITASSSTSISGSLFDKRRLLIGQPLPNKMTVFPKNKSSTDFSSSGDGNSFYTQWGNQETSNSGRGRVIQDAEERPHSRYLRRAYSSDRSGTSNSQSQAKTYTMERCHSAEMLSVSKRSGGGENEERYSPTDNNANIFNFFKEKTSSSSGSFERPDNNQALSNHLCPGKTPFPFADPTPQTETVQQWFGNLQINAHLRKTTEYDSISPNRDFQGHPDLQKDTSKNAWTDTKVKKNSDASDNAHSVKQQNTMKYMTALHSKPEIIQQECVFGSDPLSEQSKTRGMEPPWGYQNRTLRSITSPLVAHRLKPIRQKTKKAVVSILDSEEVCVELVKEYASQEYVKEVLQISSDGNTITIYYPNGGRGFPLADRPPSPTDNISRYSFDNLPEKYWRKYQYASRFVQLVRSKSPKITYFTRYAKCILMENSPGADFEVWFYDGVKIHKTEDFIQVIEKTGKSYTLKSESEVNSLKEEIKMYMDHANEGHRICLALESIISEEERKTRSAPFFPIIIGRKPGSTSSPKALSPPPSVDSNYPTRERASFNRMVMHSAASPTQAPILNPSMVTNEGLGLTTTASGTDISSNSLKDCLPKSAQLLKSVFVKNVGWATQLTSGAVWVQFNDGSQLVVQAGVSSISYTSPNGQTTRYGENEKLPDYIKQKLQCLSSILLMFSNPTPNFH
Sequence of TGFbR1 (P36897 34-503): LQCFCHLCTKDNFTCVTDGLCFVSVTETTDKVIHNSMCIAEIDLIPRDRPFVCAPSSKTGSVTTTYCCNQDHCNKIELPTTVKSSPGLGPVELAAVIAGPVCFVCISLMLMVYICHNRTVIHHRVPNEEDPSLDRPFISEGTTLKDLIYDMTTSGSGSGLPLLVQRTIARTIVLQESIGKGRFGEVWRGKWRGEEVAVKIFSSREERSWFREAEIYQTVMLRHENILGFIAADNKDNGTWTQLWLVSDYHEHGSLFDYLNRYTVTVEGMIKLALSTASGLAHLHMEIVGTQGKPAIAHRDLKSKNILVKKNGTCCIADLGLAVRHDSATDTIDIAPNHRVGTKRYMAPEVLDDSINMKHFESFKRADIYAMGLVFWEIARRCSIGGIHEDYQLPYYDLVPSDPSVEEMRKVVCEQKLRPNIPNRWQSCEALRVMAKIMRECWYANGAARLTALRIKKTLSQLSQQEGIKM
Sequence of CDC2 (P06493 whole entry): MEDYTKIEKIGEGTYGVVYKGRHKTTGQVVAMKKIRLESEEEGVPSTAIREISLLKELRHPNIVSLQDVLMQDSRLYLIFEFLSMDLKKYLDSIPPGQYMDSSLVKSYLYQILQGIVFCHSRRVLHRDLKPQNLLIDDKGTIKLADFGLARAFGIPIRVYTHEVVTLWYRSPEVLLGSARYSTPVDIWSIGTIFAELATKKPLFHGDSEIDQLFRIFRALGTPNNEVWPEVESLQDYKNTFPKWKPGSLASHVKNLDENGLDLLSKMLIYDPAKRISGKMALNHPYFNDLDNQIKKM

In the case of `CS(=O)(=O)Nc1ccccc1Nc1nc(Nc2cccc(OCCN)c2)ncc1Cl` [CZC31326, N-(2-(2-(3-(2-aminoethoxy)phenylamino)-5-chloropyrimidin-4-ylamino)phenyl)methanesulfonamide], the inhibition (in general, the change of the read-out against control, counted positive when it falls) at 10 µM turned out to be 93.1% on CDC2; 97% on NEK3; 91.7% at PLK4; 95.6% at TGFbR1; 97% at CaMKK2. The compound also returned a Competition % at JNK1 of 88.8%.
